Laboratory results as given in ChEMBL document CHEMBL3991601, “The target landscape of clinical kinase drugs” (Science, 2017).
Activity calls are given as the source filed them.

Key:
[1] = biological target: Mitogen-activated protein kinase 7 (Homo sapiens, UniProt Q13164)
[2] = biological target: Inosine-5'-monophosphate dehydrogenase 2 (Homo sapiens, UniProt P12268)
[3] = biological target: T1, Glycogen phosphorylase, brain form (Homo sapiens, UniProt P11216)
T1 sequence (P11216 whole entry): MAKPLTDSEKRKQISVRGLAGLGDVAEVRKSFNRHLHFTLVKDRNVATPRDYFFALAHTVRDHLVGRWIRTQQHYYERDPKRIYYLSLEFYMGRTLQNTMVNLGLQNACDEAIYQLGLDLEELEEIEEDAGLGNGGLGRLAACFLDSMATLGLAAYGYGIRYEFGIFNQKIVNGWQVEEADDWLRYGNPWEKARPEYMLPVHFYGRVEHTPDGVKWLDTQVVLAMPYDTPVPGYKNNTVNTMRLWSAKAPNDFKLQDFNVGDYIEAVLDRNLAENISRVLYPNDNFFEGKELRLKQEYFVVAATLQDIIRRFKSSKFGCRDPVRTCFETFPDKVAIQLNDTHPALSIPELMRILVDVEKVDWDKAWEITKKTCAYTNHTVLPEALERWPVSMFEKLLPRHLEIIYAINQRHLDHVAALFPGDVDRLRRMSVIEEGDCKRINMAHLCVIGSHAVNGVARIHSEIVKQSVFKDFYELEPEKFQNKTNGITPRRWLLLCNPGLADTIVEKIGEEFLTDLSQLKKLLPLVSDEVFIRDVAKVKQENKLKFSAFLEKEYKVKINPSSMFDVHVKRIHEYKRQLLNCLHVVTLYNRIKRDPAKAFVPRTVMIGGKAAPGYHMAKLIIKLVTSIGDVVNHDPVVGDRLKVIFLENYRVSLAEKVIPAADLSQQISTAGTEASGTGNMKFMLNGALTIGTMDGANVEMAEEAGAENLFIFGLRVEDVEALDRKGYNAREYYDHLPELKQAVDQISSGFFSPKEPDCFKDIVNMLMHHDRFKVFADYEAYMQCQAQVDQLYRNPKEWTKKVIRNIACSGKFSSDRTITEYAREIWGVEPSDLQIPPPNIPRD

[4] = biological target: cAMP-dependent protein kinase type II-alpha regulatory subunit (Homo sapiens, UniProt P13861)
[5] = biological target: Ribosomal protein S6 kinase alpha-1 (Homo sapiens, UniProt Q15418)
[6] = biological target: T2, Very long-chain specific acyl-CoA dehydrogenase, mitochondrial (Homo sapiens, UniProt P49748)
T2 sequence (P49748 whole entry): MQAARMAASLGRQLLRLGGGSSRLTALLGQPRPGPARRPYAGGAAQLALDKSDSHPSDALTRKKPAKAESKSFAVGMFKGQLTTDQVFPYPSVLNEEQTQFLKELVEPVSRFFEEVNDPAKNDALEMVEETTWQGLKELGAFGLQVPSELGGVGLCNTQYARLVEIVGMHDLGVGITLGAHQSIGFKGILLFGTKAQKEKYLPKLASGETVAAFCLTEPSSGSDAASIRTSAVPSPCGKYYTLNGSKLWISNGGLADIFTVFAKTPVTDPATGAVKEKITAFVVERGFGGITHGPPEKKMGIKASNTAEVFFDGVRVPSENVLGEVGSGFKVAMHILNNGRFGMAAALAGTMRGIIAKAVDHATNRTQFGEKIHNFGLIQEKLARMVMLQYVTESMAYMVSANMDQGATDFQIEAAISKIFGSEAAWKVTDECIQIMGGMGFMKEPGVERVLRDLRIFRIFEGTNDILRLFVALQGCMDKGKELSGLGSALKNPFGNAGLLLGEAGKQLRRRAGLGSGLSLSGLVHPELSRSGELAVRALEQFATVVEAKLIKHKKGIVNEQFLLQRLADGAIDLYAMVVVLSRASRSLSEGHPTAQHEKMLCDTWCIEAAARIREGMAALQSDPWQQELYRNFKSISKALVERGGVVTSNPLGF

[7] = biological target: DnaJ homolog subfamily A member 1 (Homo sapiens, UniProt P31689)
[8] = biological target: T3, Dynamin-like GTPase OPA1, mitochondrial (Homo sapiens, UniProt O60313)
T3 sequence (O60313 whole entry): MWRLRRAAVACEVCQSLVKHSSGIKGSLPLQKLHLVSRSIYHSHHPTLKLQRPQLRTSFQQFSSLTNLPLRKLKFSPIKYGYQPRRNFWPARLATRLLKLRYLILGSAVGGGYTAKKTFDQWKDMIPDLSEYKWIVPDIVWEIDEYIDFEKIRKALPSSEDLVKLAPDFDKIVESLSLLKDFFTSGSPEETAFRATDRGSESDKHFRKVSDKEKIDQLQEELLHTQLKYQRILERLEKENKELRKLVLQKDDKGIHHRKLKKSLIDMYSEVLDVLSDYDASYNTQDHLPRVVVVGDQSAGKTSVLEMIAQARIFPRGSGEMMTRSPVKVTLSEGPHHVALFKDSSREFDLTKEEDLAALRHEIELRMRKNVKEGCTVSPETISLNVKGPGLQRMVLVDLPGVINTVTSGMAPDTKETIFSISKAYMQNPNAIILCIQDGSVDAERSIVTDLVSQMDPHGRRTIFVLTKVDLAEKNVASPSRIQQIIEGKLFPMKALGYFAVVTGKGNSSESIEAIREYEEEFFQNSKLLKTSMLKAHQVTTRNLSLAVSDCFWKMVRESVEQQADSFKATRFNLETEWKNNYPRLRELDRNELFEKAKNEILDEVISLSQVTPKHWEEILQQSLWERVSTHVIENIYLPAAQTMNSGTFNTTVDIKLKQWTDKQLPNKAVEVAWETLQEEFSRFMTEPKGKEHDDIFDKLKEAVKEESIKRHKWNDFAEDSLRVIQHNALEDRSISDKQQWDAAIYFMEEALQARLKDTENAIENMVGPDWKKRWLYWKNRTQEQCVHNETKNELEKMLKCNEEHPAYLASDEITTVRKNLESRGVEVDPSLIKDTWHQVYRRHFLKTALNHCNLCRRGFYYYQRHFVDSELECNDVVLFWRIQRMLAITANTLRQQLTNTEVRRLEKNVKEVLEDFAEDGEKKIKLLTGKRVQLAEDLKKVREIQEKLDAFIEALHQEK

[9] = biological target: Structural maintenance of chromosomes protein 2 (Homo sapiens, UniProt O95347)
[10] = biological target: Cyclin-dependent kinase 2 (Homo sapiens, UniProt P24941)
Note: in the data inactive means no Kd found up to 30 µM.

Sequence of cAMP-dependent protein kinase type II-alpha regulatory subunit (P13861 whole entry): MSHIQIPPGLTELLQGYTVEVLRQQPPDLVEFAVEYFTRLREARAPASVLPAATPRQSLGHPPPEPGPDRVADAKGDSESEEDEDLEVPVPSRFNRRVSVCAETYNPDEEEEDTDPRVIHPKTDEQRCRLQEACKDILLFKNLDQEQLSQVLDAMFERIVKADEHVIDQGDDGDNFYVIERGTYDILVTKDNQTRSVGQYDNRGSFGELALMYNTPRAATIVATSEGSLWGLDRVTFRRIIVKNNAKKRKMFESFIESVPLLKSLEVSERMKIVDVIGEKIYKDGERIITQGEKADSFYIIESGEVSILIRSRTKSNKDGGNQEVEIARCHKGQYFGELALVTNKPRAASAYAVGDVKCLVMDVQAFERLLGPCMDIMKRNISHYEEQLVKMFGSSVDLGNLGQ
Sequence of Structural maintenance of chromosomes protein 2 (O95347 whole entry): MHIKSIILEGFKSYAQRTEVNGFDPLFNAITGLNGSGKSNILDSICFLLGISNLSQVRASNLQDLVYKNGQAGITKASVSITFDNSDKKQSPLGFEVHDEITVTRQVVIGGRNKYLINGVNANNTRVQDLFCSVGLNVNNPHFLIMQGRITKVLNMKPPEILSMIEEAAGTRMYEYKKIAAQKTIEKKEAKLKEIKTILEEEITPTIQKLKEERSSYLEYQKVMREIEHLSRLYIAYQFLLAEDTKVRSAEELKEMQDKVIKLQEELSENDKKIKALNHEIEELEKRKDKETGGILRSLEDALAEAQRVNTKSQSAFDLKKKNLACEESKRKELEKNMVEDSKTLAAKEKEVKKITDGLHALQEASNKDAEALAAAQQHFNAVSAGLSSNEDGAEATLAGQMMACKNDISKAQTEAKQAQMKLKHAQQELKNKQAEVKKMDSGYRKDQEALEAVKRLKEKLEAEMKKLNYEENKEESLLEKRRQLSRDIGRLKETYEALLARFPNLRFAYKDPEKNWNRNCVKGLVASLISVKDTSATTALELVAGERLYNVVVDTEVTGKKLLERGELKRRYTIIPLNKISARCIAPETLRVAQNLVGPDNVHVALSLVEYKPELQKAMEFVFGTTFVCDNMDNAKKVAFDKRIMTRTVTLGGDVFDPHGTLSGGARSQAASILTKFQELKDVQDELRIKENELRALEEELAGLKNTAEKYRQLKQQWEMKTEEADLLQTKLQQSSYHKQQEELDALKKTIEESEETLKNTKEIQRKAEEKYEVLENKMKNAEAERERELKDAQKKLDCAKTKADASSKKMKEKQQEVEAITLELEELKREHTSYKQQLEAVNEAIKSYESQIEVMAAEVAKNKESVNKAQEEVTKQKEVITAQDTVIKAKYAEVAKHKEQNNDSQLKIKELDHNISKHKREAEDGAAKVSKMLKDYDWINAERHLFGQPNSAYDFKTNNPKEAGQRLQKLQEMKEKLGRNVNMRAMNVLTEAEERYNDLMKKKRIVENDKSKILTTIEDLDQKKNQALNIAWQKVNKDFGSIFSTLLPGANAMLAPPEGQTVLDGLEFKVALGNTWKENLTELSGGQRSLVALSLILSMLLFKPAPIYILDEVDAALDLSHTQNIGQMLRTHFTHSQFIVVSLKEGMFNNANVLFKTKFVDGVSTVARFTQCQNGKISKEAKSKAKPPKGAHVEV
Sequence of Ribosomal protein S6 kinase alpha-1 (Q15418 whole entry): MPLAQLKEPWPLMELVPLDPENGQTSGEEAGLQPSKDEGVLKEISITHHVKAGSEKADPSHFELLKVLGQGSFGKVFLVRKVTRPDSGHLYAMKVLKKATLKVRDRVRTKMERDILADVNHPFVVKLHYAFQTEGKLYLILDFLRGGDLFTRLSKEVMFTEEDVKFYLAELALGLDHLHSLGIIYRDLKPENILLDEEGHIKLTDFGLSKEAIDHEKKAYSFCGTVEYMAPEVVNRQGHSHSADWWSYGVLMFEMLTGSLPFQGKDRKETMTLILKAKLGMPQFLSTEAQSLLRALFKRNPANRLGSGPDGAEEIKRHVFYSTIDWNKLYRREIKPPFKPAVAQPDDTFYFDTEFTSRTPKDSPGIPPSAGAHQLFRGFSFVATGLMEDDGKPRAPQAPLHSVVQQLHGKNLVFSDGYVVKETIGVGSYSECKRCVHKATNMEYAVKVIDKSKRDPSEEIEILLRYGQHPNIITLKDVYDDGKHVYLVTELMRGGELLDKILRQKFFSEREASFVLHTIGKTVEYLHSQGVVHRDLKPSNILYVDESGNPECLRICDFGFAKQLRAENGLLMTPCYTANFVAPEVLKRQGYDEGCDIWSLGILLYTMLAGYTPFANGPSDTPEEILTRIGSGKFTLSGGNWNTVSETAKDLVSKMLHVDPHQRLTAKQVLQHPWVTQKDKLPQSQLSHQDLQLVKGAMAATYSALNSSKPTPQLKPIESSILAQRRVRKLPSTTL
Sequence of Mitogen-activated protein kinase 7 (Q13164 whole entry): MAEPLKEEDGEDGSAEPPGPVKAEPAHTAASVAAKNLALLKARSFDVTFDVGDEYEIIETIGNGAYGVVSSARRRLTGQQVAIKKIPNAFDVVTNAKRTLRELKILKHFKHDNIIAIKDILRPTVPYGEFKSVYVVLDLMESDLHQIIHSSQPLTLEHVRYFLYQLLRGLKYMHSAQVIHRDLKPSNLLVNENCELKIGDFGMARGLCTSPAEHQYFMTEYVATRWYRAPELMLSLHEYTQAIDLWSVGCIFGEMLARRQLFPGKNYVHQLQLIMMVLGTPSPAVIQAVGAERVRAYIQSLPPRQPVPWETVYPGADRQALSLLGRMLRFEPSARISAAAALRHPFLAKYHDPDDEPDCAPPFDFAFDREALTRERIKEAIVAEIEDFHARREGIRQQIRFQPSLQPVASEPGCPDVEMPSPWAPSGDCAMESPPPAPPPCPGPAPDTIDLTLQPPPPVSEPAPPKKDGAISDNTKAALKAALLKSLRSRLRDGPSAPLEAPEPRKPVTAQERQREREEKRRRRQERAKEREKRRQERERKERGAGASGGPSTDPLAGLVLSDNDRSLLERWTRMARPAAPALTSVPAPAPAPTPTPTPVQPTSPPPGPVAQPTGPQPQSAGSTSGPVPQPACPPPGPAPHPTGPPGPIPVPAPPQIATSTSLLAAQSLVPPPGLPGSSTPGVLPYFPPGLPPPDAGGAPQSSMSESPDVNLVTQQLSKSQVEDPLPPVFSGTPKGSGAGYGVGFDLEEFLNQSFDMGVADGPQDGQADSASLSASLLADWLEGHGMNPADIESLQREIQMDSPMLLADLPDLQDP
Sequence of DnaJ homolog subfamily A member 1 (P31689 whole entry): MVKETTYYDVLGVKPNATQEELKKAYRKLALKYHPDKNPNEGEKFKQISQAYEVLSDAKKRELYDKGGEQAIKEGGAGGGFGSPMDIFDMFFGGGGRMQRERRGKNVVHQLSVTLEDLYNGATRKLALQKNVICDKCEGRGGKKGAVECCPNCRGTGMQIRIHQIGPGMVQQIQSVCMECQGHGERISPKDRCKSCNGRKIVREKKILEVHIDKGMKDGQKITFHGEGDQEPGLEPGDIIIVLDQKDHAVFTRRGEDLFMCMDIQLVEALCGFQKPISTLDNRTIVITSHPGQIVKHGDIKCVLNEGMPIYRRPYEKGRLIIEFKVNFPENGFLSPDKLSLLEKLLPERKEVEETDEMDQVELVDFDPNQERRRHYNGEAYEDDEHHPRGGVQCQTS

SMILES	Kd [1]	Kd [2]	Kd [3]	Kd [4]	Kd [5]	Kd [6]	Kd [7]	Kd [8]	Kd [9]	Kd [10]
Cn1cc(-c2[nH]c3cc(NC(=O)[C@H](N)C4CCCCC4)cc4c3c2C=NNC4=O)cn1	> 30 µM (inactive)	> 30 µM (inactive)	> 30 µM (inactive)	> 30 µM (inactive)	5.2 µM	> 30 µM (inactive)	> 30 µM (inactive)	> 30 µM (inactive)	> 30 µM (inactive)	> 30 µM (inactive)
NC(=O)c1ccc(N(C(N)=O)c2c(F)cccc2F)nc1-c1ccc(F)cc1F [VX-702]	> 30 µM (inactive)	> 30 µM (inactive)	> 30 µM (inactive)	> 30 µM (inactive)	> 30 µM (inactive)	> 30 µM (inactive)	> 30 µM (inactive)	> 30 µM (inactive)	> 30 µM (inactive)	> 30 µM (inactive)
COCCN1CCN(Cc2ccc(-c3n[nH]c4c3C(=O)c3c(NC(=O)NN5CCOCC5)cccc3-4)cc2)CC1 [RGB-286638]	> 30 µM (inactive)	> 30 µM (inactive)	> 30 µM (inactive)	> 30 µM (inactive)	> 30 µM (inactive)	> 30 µM (inactive)	> 30 µM (inactive)	> 30 µM (inactive)	> 30 µM (inactive)	0.072 µM (active)
CCc1nc(C(N)=O)c(Nc2ccc(N3CCC(N4CCN(C)CC4)CC3)c(OC)c2)nc1NC1CCOCC1 [GILTERITINIB]	> 30 µM (inactive)	> 30 µM (inactive)	> 30 µM (inactive)	> 30 µM (inactive)	3.44 µM (active)	> 30 µM (inactive)	> 30 µM (inactive)	> 30 µM (inactive)	> 30 µM (inactive)	> 30 µM (inactive)
COc1cccc(Nc2ncnn3ccc(CN4CC[C@@H](N)[C@H](O)C4)c23)c1 [BMS-690514]	> 30 µM (inactive)	> 30 µM (inactive)	> 30 µM (inactive)	> 30 µM (inactive)	> 30 µM (inactive)	> 30 µM (inactive)	> 30 µM (inactive)	> 30 µM (inactive)	> 30 µM (inactive)	> 30 µM (inactive)
O=C(NOC[C@H](O)CO)c1ccc(F)c(F)c1Nc1ccc(I)cc1F [MIRDAMETINIB]	> 30 µM (inactive)	> 30 µM (inactive)	> 30 µM (inactive)	> 30 µM (inactive)	> 30 µM (inactive)	> 30 µM (inactive)	> 30 µM (inactive)	> 30 µM (inactive)	> 30 µM (inactive)	> 30 µM (inactive)
O=C(NC[C@H](O)CO)c1ccncc1Nc1ccc(I)cc1F [PIMASERTIB]	> 30 µM (inactive)	> 30 µM (inactive)	> 30 µM (inactive)	> 30 µM (inactive)	> 30 µM (inactive)	> 30 µM (inactive)	> 30 µM (inactive)	> 30 µM (inactive)	> 30 µM (inactive)	> 30 µM (inactive)
O=C(Nc1ccc(OC(F)(F)F)cc1)c1sccc1NCc1ccnc2ccccc12 [OSI-930]	> 30 µM (inactive)	> 30 µM (inactive)	> 30 µM (inactive)	> 30 µM (inactive)	> 30 µM (inactive)	> 30 µM (inactive)	> 30 µM (inactive)	> 30 µM (inactive)	> 30 µM (inactive)	> 30 µM (inactive)
COc1cc2nccc(Oc3ccc(NC(=O)C4(C(=O)Nc5ccc(F)cc5)CC4)cc3)c2cc1OC [CABOZANTINIB]	> 30 µM (inactive)	> 30 µM (inactive)	> 30 µM (inactive)	> 30 µM (inactive)	> 30 µM (inactive)	> 30 µM (inactive)	> 30 µM (inactive)	> 30 µM (inactive)	> 30 µM (inactive)	> 30 µM (inactive)
C[C@@H]1COC(Nc2ccc3ncnc(Nc4ccc(OCc5nccs5)c(Cl)c4)c3c2)=N1 [VARLITINIB]	> 30 µM (inactive)	> 30 µM (inactive)	> 30 µM (inactive)	> 30 µM (inactive)	> 30 µM (inactive)	> 30 µM (inactive)	> 30 µM (inactive)	> 30 µM (inactive)	> 30 µM (inactive)	> 30 µM (inactive)
COc1ccc(-c2ccc3ncc4c(c3c2)n(-c2ccc(N3CCNCC3)c(C(F)(F)F)c2)c(=O)n4C)cn1 [BGT-226 FREE BASE]	> 30 µM (inactive)	> 30 µM (inactive)	> 30 µM (inactive)	> 30 µM (inactive)	> 30 µM (inactive)	> 30 µM (inactive)	> 30 µM (inactive)	> 30 µM (inactive)	> 30 µM (inactive)	> 30 µM (inactive)
CCN(CCCOc1ccc2c(Nc3cc(CC(=O)Nc4cccc(F)c4)n[nH]3)ncnc2c1)CCOP(=O)(O)O [BARASERTIB]	> 30 µM (inactive)	> 30 µM (inactive)	> 30 µM (inactive)	> 30 µM (inactive)	> 30 µM (inactive)	> 30 µM (inactive)	> 30 µM (inactive)	> 30 µM (inactive)	> 30 µM (inactive)	> 30 µM (inactive)
Cc1cc(Nc2nc(N[C@@H](C)c3ncc(F)cn3)ncc2Cl)n[nH]1 [AZD-1480]	> 30 µM (inactive)	> 30 µM (inactive)	> 30 µM (inactive)	> 30 µM (inactive)	> 30 µM (inactive)	> 30 µM (inactive)	> 30 µM (inactive)	> 30 µM (inactive)	> 30 µM (inactive)	> 30 µM (inactive)
CCc1cc2c(cc1N1CCC(N3CCOCC3)CC1)C(C)(C)c1[nH]c3cc(C#N)ccc3c1C2=O [ALECTINIB]	> 30 µM (inactive)	> 30 µM (inactive)	> 30 µM (inactive)	> 30 µM (inactive)	> 30 µM (inactive)	> 30 µM (inactive)	> 30 µM (inactive)	> 30 µM (inactive)	> 30 µM (inactive)	> 30 µM (inactive)
